How the values were obtained:
[1] = Measurement of Liposomal pKa (TNS fluorescence) of LNP without nucleic acid; type: physicochemical; settings: cationic lipid:DOPC:Chol=52.5:7.5:40 + about 1.5 mol DMG-PEG2k, pH at which relative TNS fluorescence intensity was 50%
Procedure: Lipid nano particles (LNP) without containing nucleic acid were used for the evaluation of Liposomal pKa.
(§1) A 10 mM ethanol solution of cationic lipid, a 5 mM ethanol solution of DOPC, and a 10 mM ethanol solution of Chol were mixed at desired ratio (cationic lipid:DOPC:Chol=52.5:7.5:40 (molar ratio)) in an Eppendorf tube to achieve the total lipid amount of 720 nmol. To the obtained mixture was further added DMG-PEG2k (2 mM ethanol solution) in an amount of about 1.5 mol with respect to the total amount 100 mol of cationic lipid, DOPC, and Chol, and then ethanol was added to prepare an ethanol solution of the lipid (total amount: 360 μL).
(§2) An acidic malic acid buffer (20 mM, pH 3.0) (1080 μL) containing NaCl at a final concentration of 30 mM and an ethanol solution (360 μL) of lipid were each weighed in a syringe. Using an ultra high-speed nanomedicament producing apparatus NanoAssmblr (manufactured by Precision NanoSystems), LNP was prepared under the conditions of addition rate of acidic buffer solution: 3 mL/min, addition rate of ethanol solution of lipid: 1 mL/min, and syringe holder temperature: 25° C., and collected in a 15 mL tube. MES buffer (pH 6.5) (3000 μL) was added to the 15 mL tube, the obtained mixture was transferred to Amicon Ultra 4, and ultrafiltration was performed under centrifugation conditions (25° C., 1000 g, 6 min) to concentrate the mixture to about 100 μL. The obtained concentrate was diluted with PBS to 4 mL, and the mixture was concentrated again under centrifugation conditions (25° C., 1000 g, 6 min), and this operation was performed twice. The obtained concentrate was diluted with PBS to a lipid concentration of 0.5 mM to give a dispersion containing LNP.
20 mM Citrate buffer, sodium phosphate buffer, and tris HCl buffer, each containing NaCl at a final concentration of 150 mM and adjusted to various pHs within the range of pH 3.0 to 10.0, were prepared. TNS (manufactured by Sigma) was diluted with ultrapure water to 0.6 mM. TNS solution (2 μL), dispersions (12 μL) containing LNP prepared in [Experimental Example 1], 1, and buffers adjusted to various pHs (186 μL) were added to a black 96 well plate. The plate was protected from light and shaken at 400 rpm for 10 min. The fluorescence intensity (excitation: 321 nm/emission: 447 nm) was measured using a plate reader (manufactured by TECAN). The relative fluorescence intensity was calculated as a percentage, with the maximum value of the fluorescence intensity in each LNP being 100% and the minimum value being 0%. Furthermore, the pH at which the relative fluorescence intensity was 50% was taken as Liposomal pKa.

[2] = Particle size, PdI and zeta potential of mRNA-encapsulating LNPs by dynamic light scattering; type: physicochemical; settings: FLuc mRNA-encapsulating LNP, cationic lipid:DOPC:Chol=55:5:40 + about 1 mol DMG-PEG2k; for PdI / particle size: dynamic light scattering; for zeta potential: physiological pH
Procedure: as §1, with “lipid:DOPC:Chol=55:5:40” for “lipid:DOPC:Chol=52.5:7.5:40”, “1” for “1.5”
An acidic buffer solution (total amount: 1080 μL) of nucleic acid was prepared by weighing 7.2 μg of mRNA solution (0.6 mg/mL) (CleanCap (registered trade mark) FLuc mRNA (TriLink)) in a 5 mL tube and adding acidic malate buffer (20 mM, pH 3.0) containing NaCl at a final concentration of 30 mM.
as §2, with “buffer solution of nucleic” for “malic”, “acid” for “acid buffer (20 mM, pH 3.0) (1080 μL) containing NaCl at a final concentration of 30 mM”, “solution” for “solution (360 μL)”, “solution of nucleic acid:” for “solution:”, “2” for “0.5”
The particle size, PdI (Polydispersity Index, Polydispersity), and zeta potential of the mRNA-encapsulating LNP prepared by the method of the above-mentioned 1 were measured by a dynamic light scattering method.

Jurkat cells = experiment: In vitro gene expression (luciferase mRNA) in Jurkat cells; type: cell-based, human; settings: FLuc mRNA-encapsulating LNP, 0.4 μg mRNA, FIG. 1
Procedure: (§3) LNP encapsulating mRNA (CleanCap (registered trade mark) FLuc mRNA (TriLink)) that expresses luciferase (cationic lipid:DOPC:Chol:DMG-PEG2k=55:5:40:1 (molar ratio)) was prepared by the method described in [Experimental Example 2], 1.
Jurkat cells, which are human leukemia T cells, were seeded in a 3.5 cm dish at 2.0×10^5 cells/1.8 mL/Dish 24 hours before transfection. After 24 hr, a medium (RPMI1640) (200 μL) supplemented with D-luciferin was added to the dish at final concentration of 0.1 mM. Each mRNA-encapsulating LNP dispersion (40 to 120 μL) (0.4 μg as mRNA) was added to the aforementioned dish, and the aforementioned dish was set in an incubator luminometer KronosDio. The luminescence intensity of luciferase was measured for 2 min every three hours. The cumulative luciferase luminescence intensity for 24 hr was calculated from the obtained time change of expression. For example, “5.0E+05” means “5.0×10^5”.

HeLa cells = experiment: In vitro gene expression (luciferase mRNA) in HeLa cells; type: cell-based, human; settings: FLuc mRNA-encapsulating LNP, 0.4 μg mRNA, FIG. 3
Procedure: as §3
HeLa cells, which are human cervical cancer cells, were seeded in a 3.5 cm dish at 5.0×10^4 cells/2 mL/Dish 24 hours before transfection. After 24 hours, the medium was exchanged with a culture medium (D-MEM) containing 0.1 mM D-luciferin. Prepared mRNA-encapsulating LNP was diluted with PBS such that the concentration of mRNA was 8 μg/mL. The diluted mRNA-encapsulating LNP solution (50 μL, mRNA: 0.4 μg) was added to the 3.5 cm dish and set in an incubator luminometer KronosDio. The luminescence intensity of luciferase was measured for 2 min every one hour. The cumulative luciferase luminescence intensity for 24 hr was calculated from the obtained time change of expression. For example, “1.0E+06” means “1.0×10^6”.

BALB/c mouse = experiment: In vivo gene expression (luciferase mRNA), organ luminescence by IVIS; settings: tail vein, 0.05 mg mRNA per kg, 4.5 hr after administration, liver and spleen, FIG. 2
Procedure: as §3
The prepared each mRNA-encapsulating LNP dispersion was administered from the tail vein of BALB/c mouse (male, 5-week-old). The dose of mRNA was set to 0.05 mg per 1 kg body weight of the mouse, and the dose of the mRNA-encapsulating LNP dispersion was set to 10 μL per 1 g body weight of the mouse. After 4.5 hr from the administration of the mRNA-encapsulating LNP dispersion, a PBS solution of D-luciferin potassium was administered into the abdominal cavity of the mouse. The dose of D-luciferin potassium was set to 3 mg per mouse, and the dose of the PBS solution of D-luciferin potassium was set to 200 μL per mouse. After 15 min from the administration of the PBS solution of D-luciferin potassium, the mouse was euthanized, and the liver, spleen, kidney, heart, and lung were isolated. The luminescence in each organ was quantified using an in vivo imaging system (IVIS) with an exposure of 10 sec. The amount of luminescence in each organ was quantified by image analysis using Live Imaging software attached to IVIS. The amount of luminescence (photons/sec) was calculated from the acquired image and used as an index of gene expression activity. […]

Row | SMILES | pKa [1] | PdI [2] | particle size [2] [nm] | zeta potential [2] [mV] | gene expression activity (cumulative luciferase luminescence intensity for 24 hr) (Jurkat cells) | gene expression activity (cumulative luciferase luminescence intensity for 24 hr) (HeLa cells) | gene expression activity (amount of luminescence in organ) (BALB/c mouse)
1 | CCCCCCCC/C=C\CCCCCCCC(=O)Oc1ccc(CC(=O)OCCOC(=O)C(CSSCC(NC(=O)CN(C)C)C(=O)OCCOC(=O)Cc2ccc(OC(=O)CCCCCCC/C=C\CCCCCCCC)cc2)NC(=O)CN(C)C)cc1 (stereo not drawn) [Example 1] | 6.6 | 0.105 | 78 | 0.01 | superior gene expression activity | superior gene expression activity | superior gene expression activity in the liver and the spleen
2 | CCCCCCCC/C=C\CCCCCCCC(=O)Oc1ccc(CC(=O)OCCOC(=O)C(CSSCC(NC(=O)CN(C)CC)C(=O)OCCOC(=O)Cc2ccc(OC(=O)CCCCCCC/C=C\CCCCCCCC)cc2)NC(=O)CN(C)CC)cc1 (stereo not drawn) [Example 2] | 6.4 | 0.073 | 82 | −5.02 | – | – | –
3 | CCCCCCCC/C=C\CCCCCCCC(=O)Oc1ccc(CC(=O)OCCOC(=O)C(CSSCC(NC(=O)CN(C)CCC)C(=O)OCCOC(=O)Cc2ccc(OC(=O)CCCCCCC/C=C\CCCCCCCC)cc2)NC(=O)CN(C)CCC)cc1 (stereo not drawn) [Example 3] | 5.9 | 0.100 | 111 | −11.2 | – | – | –
4 | CCCCCCCC/C=C\CCCCCCCC(=O)Oc1ccc(CC(=O)OCCOC(=O)C(CSSCC(NC(=O)CN(CC)CC)C(=O)OCCOC(=O)Cc2ccc(OC(=O)CCCCCCC/C=C\CCCCCCCC)cc2)NC(=O)CN(CC)CC)cc1 (stereo not drawn) [Example 4] | 6.3 | 0.091 | 81 | −7.78 | – | – | –
5 | CCCCCCCC/C=C\CCCCCCCC(=O)Oc1ccc(CC(=O)OCCOC(=O)C(CSSCC(NC(=O)CN(CCC)CCC)C(=O)OCCOC(=O)Cc2ccc(OC(=O)CCCCCCC/C=C\CCCCCCCC)cc2)NC(=O)CN(CCC)CCC)cc1 (stereo not drawn) [Example 5] | 5.3 | 0.162 | 112 | −12.4 | – | – | –
6 | CCCCCCCC/C=C\CCCCCCCC(=O)Oc1ccc(CC(=O)OCCOC(=O)C(CSSCC(NC(=O)CN2CCCCC2)C(=O)OCCOC(=O)Cc2ccc(OC(=O)CCCCCCC/C=C\CCCCCCCC)cc2)NC(=O)CN2CCCCC2)cc1 (stereo not drawn) [Example 7] | 6 | 0.080 | 126 | −10.3 | – | – | –
